Reference: ChEMBL document CHEMBL1201862, “PubChem BioAssay data set” (2004)
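1) Cells in 96-well plates. 2) Compound, 48 h, 5 concentrations. 3) Linear interpolation between surrounding doses. 4) Unreached endpoint = highest concentration. GI50 marks 50% less growth.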 The source made the active and inactive calls. Rule as the data show it: active = GI50 up to about 1.1 µM and inactive = higher.

What was measured:
Test in all cases: NCI-60 cell line screen, 48 h
OVCAR-3 = tested on: OVCAR-3
HOP-62 = tested on: HOP-62
DU-145 = tested on: DU-145
Malme-3M = tested on: Malme-3M
ACHN = tested on: ACHN
SF-268 = tested on: SF-268
NCI-H23 = tested on: NCI-H23
CAKI-1 = tested on: CAKI-1
SN12C = tested on: SN12C
SK-OV-3 = tested on: SK-OV-3
PC-3 = tested on: PC-3
Hs-578T = tested on: Hs-578T
MOLT-4 = tested on: MOLT-4
KM12 = tested on: KM12
T47D = tested on: T47D
BT-549 = tested on: BT-549
HOP-92 = tested on: HOP-92
MDA-MB-231 = tested on: MDA-MB-231
SR = tested on: SR
HCT-15 = tested on: HCT-15
UACC-62 = tested on: UACC-62
SW-620 = tested on: SW-620
HT-29 = tested on: HT-29
NCI-H522 = tested on: NCI-H522
IGROV-1 = tested on: IGROV-1
COLO 205 = tested on: COLO 205
K562 = tested on: K562
M14 = tested on: M14
MDA-N = tested on: MDA-N
NCI/ADR-RES = tested on: NCI/ADR-RES
EKVX = tested on: EKVX
A498 = tested on: A498
UACC-257 = tested on: UACC-257
CCRF-CEM = tested on: CCRF-CEM
HCC 2998 = tested on: HCC 2998
NCI-H226 = tested on: NCI-H226
OVCAR-5 = tested on: OVCAR-5
LOX IMVI = tested on: LOX IMVI
A549 = tested on: A549
SK-MEL-28 = tested on: SK-MEL-28
OVCAR-8 = tested on: OVCAR-8
HCT-116 = tested on: HCT-116
UO-31 = tested on: UO-31
786-0 = tested on: 786-0
MDA-MB-435 = tested on: MDA-MB-435
SNB-75 = tested on: SNB-75
TK-10 = tested on: TK-10
SNB-19 = tested on: SNB-19
U-251 = tested on: U-251
SF-539 = tested on: SF-539
MCF7 = tested on: MCF7
SK-MEL-5 = tested on: SK-MEL-5
SF-295 = tested on: SF-295
OVCAR-4 = tested on: OVCAR-4
NCI-H460 = tested on: NCI-H460

OC(Cc1ccc2ccccc2n1)(C(F)(F)Cl)C(F)(F)Cl
GI50 (OVCAR-3): > 10 µM (inactive)
GI50 (HOP-62): > 10 µM (inactive)
GI50 (DU-145): > 10 µM (inactive)
GI50 (Malme-3M): > 10 µM (inactive)
GI50 (ACHN): > 10 µM (inactive)
GI50 (SF-268): > 10 µM (inactive)
GI50 (NCI-H23): > 10 µM (inactive)
GI50 (CAKI-1): > 10 µM (inactive)
GI50 (SN12C): > 10 µM (inactive)
GI50 (SK-OV-3): > 10 µM (inactive)
GI50 (PC-3): > 10 µM (inactive)
GI50 (Hs-578T): > 10 µM (inactive)
GI50 (MOLT-4): > 10 µM (inactive)
GI50 (KM12): > 10 µM (inactive)
GI50 (T47D): > 10 µM (inactive)
GI50 (BT-549): > 10 µM (inactive)
GI50 (HOP-92): > 10 µM (inactive)
GI50 (MDA-MB-231): > 10 µM (inactive)
GI50 (SR): > 10 µM (inactive)
GI50 (HCT-15): > 10 µM
GI50 (UACC-62): > 10 µM (inactive)
GI50 (SW-620): > 10 µM (inactive)
GI50 (HT-29): > 10 µM (inactive)
GI50 (NCI-H522): > 10 µM (inactive)
GI50 (IGROV-1): > 10 µM (inactive)
GI50 (COLO 205): > 10 µM (inactive)
GI50 (K562): > 10 µM (inactive)
GI50 (M14): > 10 µM (inactive)
GI50 (MDA-N): > 10 µM (inactive)
GI50 (NCI/ADR-RES): > 10 µM (inactive)
GI50 (EKVX): > 10 µM (inactive)
GI50 (A498): > 10 µM (inactive)
GI50 (UACC-257): > 10 µM (inactive)
GI50 (CCRF-CEM): > 10 µM (inactive)
GI50 (HCC 2998): > 10 µM (inactive)
GI50 (NCI-H226): > 10 µM (inactive)
GI50 (OVCAR-5): > 10 µM (inactive)
GI50 (LOX IMVI): > 10 µM (inactive)
GI50 (A549): > 10 µM (inactive)
GI50 (SK-MEL-28): > 10 µM (inactive)
GI50 (OVCAR-8): > 10 µM (inactive)
GI50 (HCT-116): > 10 µM (inactive)
GI50 (UO-31): > 10 µM (inactive)
GI50 (786-0): > 10 µM (inactive)
GI50 (MDA-MB-435): > 10 µM (inactive)
GI50 (SNB-75): > 10 µM (inactive)
GI50 (TK-10): > 10 µM (inactive)
GI50 (SNB-19): > 10 µM (inactive)
GI50 (U-251): > 10 µM (inactive)
GI50 (SF-539): > 10 µM (inactive)
GI50 (MCF7): > 10 µM (inactive)
GI50 (SK-MEL-5): > 10 µM (inactive)
GI50 (SF-295): > 10 µM (inactive)
GI50 (OVCAR-4): > 10 µM (inactive)
GI50 (NCI-H460): > 10 µM (inactive)
